Experimental findings from ChEMBL document CHEMBL1124501, “Novel cytotoxic compounds from the ascidian Lissoclinum bistratum” (J Med Chem, 1989) are described below.

What all share (assay type): functional, cell-based
For test [1], the system named is MRC5CV1. The test can be described thus: Cytotoxicity evaluated by incorporation of [methyl-3H]thymidine into human MRC5CV1, a control fibroblast cell line.
For test [2], the system named is T-24. Briefly: Cytotoxicity evaluated by incorporation of [methyl-3H]thymidine into human T24, a bladder carcinoma cell line.
For test [3], the system named is T-24. The test can be described thus: Cytotoxicity evaluated by incorporation of [methyl-3H]thymidine into human T24, a bladder carcinoma cell line.
Test [4] relates to P388. Briefly: Cytotoxicity in vitro against P388 cell line. Conditions: Mus musculus.

As a reminder, the IC50 is the concentration that gives 50% inhibition. Read a low IC50 as greater potency.

Molecules are shown by their SMILES. Converted amounts (≈) assume the structure as drawn.

Take `CC(C)[C@@H]1NC(=O)C2CSC(=N2)[C@H](Cc2ccccc2)NC(=O)C2CSC(=N2)[C@@H](C)NC(=O)[C@H]2N=C1O[C@@H]2C` [BISTRATAMIDE A]: the IC50 turned out to be 50 µg/mL (≈ 87.6 µM) in test [1] and 0.07 µg/mL (≈ 0.123 µM) in test [2].
On to `CC(C)[C@@H]1NC(=O)c2csc(n2)[C@H](Cc2ccccc2)NC(=O)C2CSC(=N2)[C@@H](C)NC(=O)[C@H]2N=C1O[C@@H]2C` [BISTRATAMIDE B], for which the values for the IC50 in test [3] and in test [1] were 0.09 µg/mL (≈ 0.158 µM) and more than 100 µg/mL, respectively.
For `C/C=C/C(=O)CC1CCC2(O)CC(C)C(CCCNC(=O)C(C)C3CNC(=O)CC(O1)C(C)CCCCC(CCC(C)/C=C(\C)C(C)O)O3)O2` (centres undefined) [BISTRATENE A], the IC50 in test [1] and in test [2] was 0.07 µg/mL (≈ 0.0993 µM) each time.
Turning to `C/C=C/C(=O)CC1CCC2(O)CC(C)C(CCCNC(=O)C(C)C3CNC(=O)CC(O1)C(C)CCCCC(CCC(C)/C=C(\C)C(C)OC(C)=O)O3)O2` (centres undefined) [BISTRATENE B], the half-maximal inhibitory concentration (IC50) in test [1] and in test [2] was 0.09 µg/mL (≈ 0.12 µM) each time.
In test [4], `CCC/C=C/C=C/C(=O)O[C@H]1/C(=C/C(=O)OC)C[C@H]2CC([C@@H](C)O)OC(=O)C[C@H](O)C[C@@H]3C[C@H](OC(C)=O)C(C)(C)[C@](O)(C[C@@H]4C/C(=C/C(=O)OC)C[C@H](/C=C/C(C)(C)[C@]1(O)O2)O4)O3` (some centres undefined) [BRYOSTATINS] yielded an IC50 of 0.89 µg/mL (≈ 0.983 µM).
